Columns and labels:
T47D cells [1] = experiment: Proliferation colony formation assay (SRB stain); type: cell-based
Method: (§1) T47D, ZR-75-1, or MCF7 cells were seeded into 6-well tissue culture plates at 10% seeding confluence (100,000-150,000 cells per well). After allowing 18-24 hours for the cells to attach to the wells, growth media was aspirated and discarded and new growth media containing 0-20 μM of either COMPOUND A or COMPOUND B was added in 2-fold increments of descending concentration from 20 μM to the cells (proliferation assay). In parallel, seeded cultures with the same titration of the KAT6 inhibitors was added to the cells. 500 nM palbociclib was also added for each concentration of the KAT6 inhibitors (palbociclib recovery assay). The cultures were incubated 12-14 days and treated with these inhibitors/inhibitor combinations. Growth media containing the inhibitors was replaced on the cell cultures every 3-4 days (twice per week).
For the KAT6 inhibitor treated T47D cultures (proliferation assay), after 12 days the vehicle (DMSO) treated cultures were >90% confluent and the cell cultures were SRB stained as described in Example 3. The stained 6-well plates were scanned using an Epson Perfection V600 Photo Scanner and Epson Scan version 3.9.2.0 software. To quantitate SRB staining in each 6-well culture, the cultures were destained with 2 mL 10 mM Tris pH 7.5 per well and the absorbance at 565 nm (O.D. 565) of the released stain was measured using a SpectraMax Plus plate reader and SoftMaxPro 5.4.3 software. Inhibition of T47D cell proliferation by both COMPOUND A and COMPOUND B were equivalent with 50% proliferation inhibition observed with 10 μM of the KAT6 inhibitors (FIGS. 8A and 8C).
Cells were plated at low density into 6-well culture dishes and allowed to attach overnight at 37° C., 5% CO2. The next day, in parallel to the proliferation set, palbociclib was added at a final concentration of […] to another set of plates, which served as the set for palbociclib recovery. To both proliferation and palbociclib recovery plates, DMSO or KAT6 inhibitor was added into each well at increasing doses. Medium and KAT6 inhibitor were refreshed twice a week. Cells were cultured for about two weeks of drug treatment until the DMSO-treated wells reached confluency. At the end of treatment, cells were washed once with phosphate-buffered saline and were fixed and stained with SRB for visualization followed by quantification. […] Wells were fixed and stained with SRB for visualization followed by quantification. To quantify the stain, stained cells were dissolved in 2 mL of 10 mM Tris-HCl, pH 7.5 and shaken for 10 min on a shaker. Samples were then diluted with 10 mM Tris-HCl, pH 7.5, transferred to a 96-well microtiter plate in a volume of 100 μL and read on SpetraMax at 565 nm.

ZR-75-1 cells = experiment: Proliferation colony formation assay (SRB stain); type: cell-based
Method: as §1
For the ZR-75-1 and MCF7 experiments, only COMPOUND A was tested. For the single agent treated ZR-75-1 cultures the vehicle treated cultures were >90% confluent after 12 days of treatment. These cultures were SRB stained, scanned, and destained/measured as described above. […] After 22 days of recovery, the ZR-75-1 cultures that had been treated with single agent 500 nM palbociclib were >90% confluent and these palbociclib recovery assay cultures were SRB stained, scanned, and destained/measured as described above.
Cells were plated at low density into 6-well culture dishes and allowed to attach overnight at 37° C., 5% CO2. […] At the end of treatment, cells were washed once with phosphate-buffered saline and were fixed and stained with SRB for visualization followed by quantification. […] Wells were fixed and stained with SRB for visualization followed by quantification. To quantify the stain, stained cells were dissolved in 2 mL of 10 mM Tris-HCl, pH 7.5 and shaken for 10 min on a shaker. Samples were then diluted with 10 mM Tris-HCl, pH 7.5, transferred to a 96-well microtiter plate in a volume of 100 μL and read on SpetraMax at 565 nm.

[2] = system: estradiol response genes in T47D cells; experiment: RNA-Seq gene set enrichment analysis; type: cell-based; details: 20 nM, 6-day treatment, GSEA
Method: The following day, cells were treated with vehicle control (DMSO) or COMPOUND C at 20 nM concentration. Media and compounds were refreshed three days later for a total of 6-day treatment. At the end of the 6-day treatment, cells were harvested by trypsinization and lysed in Buffer RLT (Qiagen, Cat No./ID 79216)^+β-mercaptoethanol. RNA lysates were submitted for RNA sequencing (“RNA-Seq”) (WuXi NextCODE®).
RNA-Seq data analysis: Adapter sequences were trimmed off from the Illumina raw reads, provided by WuXi NextCODE®, using Trimmomatic (v0.36) for paired-end reads, and low-quality reads were filtered out. Reads remaining after the pre-processing step were mapped to the reference genome hg38 using STAR (v2.6.0c). Gene level expression was quantitated as expected counts and transcripts per million (TPM) using “rsem-calculate-expression” of RSEM (v1.3.0) with default parameters. Differential expression analysis of robustly expressed genes (max expression across samples >=10) was performed using DESeq2 (v1.18.1) package. Gene set enrichment analysis (GSEA, v3.0) was conducted using GseaPreranked option. Genes were ranked based on signedlog10pval. Gene set collections (c2.all.v6.1) from Molecular Signatures Database (MSigDB) were used in this analysis.

[3] = system: ERα and Cyclin D1 in T47D cells; experiment: Western blot after KAT6 inhibitor dose titration; type: cell-based; details: increasing concentrations, 14 days
Method: Cells were plated at 10,000 cells per well into 6-well culture dishes and allowed to attach overnight at 37° C., 5% CO2. The next day, either COMPOUND C or COMPOUND D was added to wells at increasing concentrations, in addition to DMSO as vehicle control. Cells were cultured for 14 days with medium and KAT6 inhibitor refreshed twice a week (every 3-4 days). At the end of drug treatment, one million cells were collected via trypsinization for protein lysates. Cells were lysed in 100 μL 1× LDS buffer diluted from 4× LDS buffer (ThermoFisher catalog #NP0007) with reducing agent (ThermoFisher catalog #NP0009). The lysates were subsequently sonicated and loaded onto a NuPAGE 4-12% Bis-Tris gel (ThermoFisher, catalog #NP0321BOX) followed by electrophoresis. Gels were then transferred onto a nitrocellulose membrane (iBlot2, ThermoFisher). Membranes were blocked and incubated overnight at 4° C. with following antibodies: anti-ERα (D8H8) Rabbit mAb (#8644, Cell Signaling) and anti-β-actin (8H10D10) mouse mAb (Cell Signaling, #3700S). […]

T47D cells [4] = experiment: Palbociclib growth arrest and recovery, cell counts; type: cell-based; details: 500 nM palbociclib
Method: T47D and MCF7 were confirmed as ER+ breast cancer cell lines using short tandem repeat (“STR”) testing (ATCC STR profiling service). […] After allowing 18-24 hours for the cells to attach to the plates, 500 nM palbociclib was added to each culture. Growth media and palbociclib was refreshed twice per week (every 3-4 days). […] For T47D cultures, the cells were suspended by trypsinization from triplicate cultures on days 1, 14, and 24 of palbociclib treatment and the cell density of each suspension was measured using a Vi-Cell XR cell counter. In a separate experiment, three additional T47D cultures were treated for 14 days with 500 nM palbociclib, then the palbociclib was washed off the cells and the cells were allowed to recover for 10 days. After 10 days of recovery, the cells were suspended by trypsinization and the cell density of each suspension was measured by cell counter.

MCF7 cells = experiment: as above; type: cell-based; details: MCF7, 500 nM palbociclib
Method: T47D and MCF7 were confirmed as ER+ breast cancer cell lines using short tandem repeat (“STR”) testing (ATCC STR profiling service). […] After 6 and 14 days of palbociclib treatment, the cells in each well were suspended by trypsinization and cell densities were measured by cell counter. For the additional MCF7 cultures that were treated, in parallel, for either 6 or 14 days with 500 nM palbociclib, the palbociclib was washed off the cells and they were allowed 7-8 days to recover. After this recovery period, the cells were suspended by trypsinization and the cell densities of each suspension were measured. Similar to the T47D cells, palbociclib treatment stably arrested MCF7 cells for up to 14 days of treatment (FIG. 1B). However, after removing palbociclib from the MCF7 cultures treated for either 6 or 14 days, the cells readily re-entered the cell cycle and proliferated.

CAMA1 cells = experiment: Profiling of the response of CAMA1 to palbociclib; type: cell-based
[5] = system: ERα protein in MCF7 cells; experiment: Western blot after palbociclib treatment; type: cell-based; details: MCF7, 500 nM palbociclib, 8 days
Method: (§2) Cells were seeded into 6-well culture plates and allowed to attach overnight at 37° C., 5% CO2. […] Medium was refreshed every 3 days. At 3, 6 and 8 days of treatment, cells were harvested for protein and RNA lysates.

[6] = system: ERα protein in T47D cells; experiment: Western blot after palbociclib treatment; type: cell-based; details: 500 nM palbociclib, 8 days
Method: as §2

[7] = system: ER+ breast cancer PDX model ST340; experiment: PDX tumor growth inhibition study; type: in vivo, female athymic nude mice; details: doses per Table 7; for % TGI Delta: PDX ST340, day 21, compared to Vehicle
Method: (§3) Combination studies with palbociclib, fulvestrant and the KAT6 inhibitor, Compound E (KAT6i), were performed in two ER+ breast cancer PDX models: ST340 and ST941. ST340 was wildtype for ESR1. […] Both studies were conducted by XenoSTART (San Antonio, Texas), where 6-12 week-old female athymic nude mice (JAX, stock #007850) were subcutaneously implanted with ~70 mg tumor fragments. Animals were supplemented with exogenous estradiol ad libitum via drinking water throughout the duration of the studies. Tumor measurements and animal weights were captured twice per week, and animals were stratified and enrolled into the study when the mean tumor volume (TV, formula: width^2×length×0.5) reached 150-300 mm^3.
(§4) Each study contained eight treatment groups of n=10 animals per group. The groups were as follows: 1) Vehicle (5% DMSO/40% PEG300/55% 1×PBS), 2) Compound E, 3) palbociclib, 4) fulvestrant, 5) palbociclib+fulvestrant, 6) Compound E +fulvestrant, 7) Compound E+palbociclib, and 8) Compound E+palbociclib+fulvestrant. Animals remained on study and were continued on treatments until the mean tumor volume of each group reached ~1500 mm^3. At that point, the final dose was administered, animals were sacrificed, and terminal samples were collected. Blood microsamples were collected from each group for pharmacokinetics (PK) analysis at 0, 3, and 7 hrs (n=3/timepoint) on day 14 of dosing and again on the terminal day of dosing.
(§5) Analysis of covariance (ANCOVA) was used to determine statistical significance when comparing percent TGI between groups. Changes in bodyweights were calculated in relation to starting bodyweights at study initiation (day 0 of treatment).

[8] = Bodyweight and health monitoring, PDX ST340 study; type: in vivo, female athymic nude mice; details: relative to day 0
Method: as §3, §4, §5

[9] = Bodyweight and health monitoring, PDX ST941 study; type: in vivo, female athymic nude mice; details: relative to day 0
Method: as §3, §4, §5

SMILES: COc1cccc(OC)c1S(=O)(=O)Nc1noc2cc(Cn3cccn3)cc(OC)c12 [COMPOUND C, 2,6-dimethoxy-N-{4-methoxy-6-[(1H-pyrazol-1-yl)methyl]-1,2-benzoxazol-3-yl}benzene-1-sulfonamide]
- Kind of effect on cell growth (T47D cells [1]; dose titration): cytostatic
- Maximal reduction of growth (T47D cells [1]; single agent, about two weeks): about 40%
- IC50 (ZR-75-1 cells; Homo sapiens, ZR-75-1, ZR75-1, single agent, about two weeks, read-out: Concentration giving 50% growth inhibition): ~3.9 nM
- Kind of effect on cell growth (ZR-75-1 cells; ZR75-1, dose titration): strong dose-dependent cytotoxic effect
- NES (Normalized Enrichment Score), estradiol-induced genes [2]: −9,92
- NES (Normalized Enrichment Score), estradiol-repressed genes [2]: 6.27
- ERα and Cyclin D1 protein [3]: dose-dependent depletion

SMILES: CC(=O)c1c(C)c2cnc(Nc3ccc(N4CCNCC4)cn3)nc2n(C2CCCC2)c1=O [Palbociclib, 6-acetyl-8-cyclopentyl-5-methyl-2-(5-piperazin-1-yl-pyridin-2-ylamino)-8H-pyrido[2,3-d]pyrimidin-7-one]
- Effect on cell cycle (T47D cells [4]): complete cell cycle arrest
- Reversibility of growth arrest (T47D cells [4]; after withdrawal): reversible upon palbociclib withdrawal
- Effect on cell cycle (MCF7 cells): complete cell cycle arrest
- Reversibility of growth arrest (MCF7 cells; after withdrawal): reversible upon palbociclib withdrawal
- Effect of single agent treatment on proliferation (CAMA1 cells): irreversible proliferation arrest
- Reduction of ERα protein level [5]: about 50%
- Reduction of ERα protein level [6]: about 50%
- % TGI Delta [7]: 43.7%
- % TGI Delta ([7]; listed as palbociclib): ~ 40%
- Mean ± SEM (day 21) ([7]; PDX ST340, tumor volume (mm^3)): 1051.4 ± 134
- Day 21 mean change in bodyweight [8]: −2%
- Maximum mean bodyweight loss [8]: −3%
- Day 17 mean change in bodyweight [9]: −1%
- Maximum mean bodyweight loss [9]: −3%

— patent US20260240819A1, “KAT6 INHIBITOR METHODS AND COMBINATIONS FOR CANCER TREATMENT” (Pfizer Inc., priority 2020, published 2026)
